For data set [1], the system named is Staphylococcus aureus ATCC29213. Nature of the data set: Antibacterial activity, ATP assay (BacTiter-Glo). The format is cell-based. To be noted: for antibacterial activity against Staphylococcus aureus compared with AG30-5C: 10 μg/mL, ATP assay; for ATP (%) mean, Staphylococcus aureus: Table 4-1, ATP assay concentration: peptides 10, TOB 1.0, OX 0.5 μg/ml. Summed up:
(§1)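 Bacterial viability read by BacTiter-Glo ATP luminescence after peptide exposure in Mueller-Hinton broth, inoculum about 0.5−1×10^5 CFU/mL (final). Viability expressed relative to untreated control; tobramycin as positive control. MIC by CLSI M100-S17/M7-A7 broth microdilution.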

The subject of data set [2] is Pseudomonas aeruginosa ATCC27853. Nature of the data set: Antibacterial activity, ATP assay (BacTiter-Glo). The format is cell-based. The conditions noted are these: for ATP (%) mean, Pseudomonas aeruginosa: Table 4-1, ATP assay concentration: peptides 10, TOB 1.0, CPFX 1.0, OX 0.5, MEPM 1.0 μg/ml. Put shortly:
as §1

A further data set is described as follows: in vitro. The class given is in vitro ADME, rat. The conditions noted are these: for half-life: rat serum, 37° C. On the procedure:
(§2) Then, the stability of five polypeptides SR-1 to 5 in serum was evaluated.
(§3) In human serum (purchased from KAC Co., Ltd.), or in rat serum obtained by collecting blood from a rat, then leaving the collected blood to stand at room temperature followed by centrifugation, each of the peptides was dissolved so as to attain a final concentration of 500 μg/mL, and the obtained solutions were left to stand at 37° C. After leaving to stand for 10 min or 30 min or 60 min, these solutions were subjected to HPLC chromatogram analysis to detect peaks of the decomposition products, and calculate the ratio of the concentration of the peptides which remained in the solutions relative to the starting concentration. In addition, the half-lives of the peptides in serum were also calculated.
(§4) HPLC chromatogram analysis conditions are as follows.

The format of data set [3] is in vitro ADME. To be noted: human serum, 37° C. On the procedure:
as §2, §3, §4

The subject of data set [4] is human vascular endothelial cells and fibroblast cells (co-culture). The data set can be described thus: Lumen formation with angiogenesis kit KZ-1000 (section 7). The class given is cell-based. The conditions noted are these: for The Area of Lumina (relative value, negative control as 100) / The Length of Lumina (relative value, negative control as 100): day 11. The protocol: Using an angiogenesis kit available from KURABO […] LTD. (Product No.: KZ-1000), lumen formation by the polypeptides was evaluated. Vascular endothelial growth factor A (VEGF-A) as a positive control, and polypeptide-free, unstimulated group as a negative control, were used.
Using a special medium for angiogenesis which was attached to the kit, each polypeptide was prepared such that the concentration thereof was respectively 0.5, 2.5 and 10 μg/mL. To a 24-well plate in which cells were plated (the cells were those obtained by co-culturing human vascular endothelial cells and fibroblast cells at an optimum concentration) which was attached to the kit, the special medium for angiogenesis containing each polypeptide was added, and the cells were cultured at 37° C. under 5% CO2. The medium was replaced with a medium containing the same additive on day 4, day 7 and day 9 of culture. On day 11 from the beginning of the culture, staining was performed using a kit for staining lumina (for CD31 antibody staining) according to the following procedure.
The media were removed, and washing was performed with Dulbecco's phosphate buffered saline (PBS(−)). Thereafter, ice-cooled 70% ethanol was added to the plate, and the cells were fixed. Each well was washed with a blocking solution (Dulbecco's phosphate buffered saline (PBS(−)) containing 1% BSA). To each well, 0.5 mL of the primary antibody for CD31 staining (mouse anti-human CD31 antibody) 4000-fold diluted with the blocking solution was added, and then the plate was incubated for 60 minutes at 37° C. After the completion of the incubation, each well was washed totally 3 times with 1 mL of the blocking solution. Then, 0.5 mL of the secondary antibody solution (goat anti-mouse IgG/alkaline phosphatase conjugate) 500-fold diluted with the blocking solution was added to each well. The plate was incubated for 60 minutes at 37° C., and thereafter each well was washed 3 times with 1 mL of distilled water. During that period, 2 tablets of BCIP/NBT were dissolved into distilled water, and the obtained solution was filtered through a filter having a pore size of […] to prepare a substrate solution. To each well, 0.5 mL of the prepared BCIP/NBT substrate solution was added, and the plate was incubated at 37° C. until the lumina turned to deep purple (typically for 5-10 minutes). After the completion of the incubation, each well was washed 3 times with 1 mL of distilled water. After washing, the washing solution was removed by aspiration, and the plate was left to stand and dry naturally. After drying, photographs of each well were taken under a microscope.
Each of the obtained images was quantified using an angiogenesis quantification software. The area and length of formed lumina observed in each visual field were measured on the basis of the scale of an angiogenesis quantification software available from KURABO […] LTD. (angiogenesis quantification software Ver 1.0), and evaluated on the basis of the ratio of the area or length of polypeptide-containing groups relative to the area or length of the negative control group.

Read-outs that look alike come from different tables or passages of the source. Peptide text beside a SMILES is read from it.

Usually half-life stands for the time needed for the level to fall by half in the phase considered. Higher therefore signals slow loss. Broadly, the share remaining is what is left of the initial amount, in per cent.

`CSCC[C@H](NC(=O)[C@H](CCCNC(=N)N)NC(=O)[C@H](CCCCN)NC(=O)[C@H](CC(C)C)NC(=O)[C@H](CCCNC(=N)N)NC(=O)[C@H](Cc1c[nH]cn1)NC(=O)[C@H](CC(C)C)NC(=O)[C@H](Cc1ccccc1)NC(=O)[C@H](CCCNC(=N)N)NC(=O)[C@H](CC(C)C)NC(=O)[C@@H](N)CCC(=O)O)C(=O)N[C@@H](CCCNC(=N)N)C(=O)N[C@@H](CCCCN)C(=O)N[C@@H](CCCNC(=N)N)C(=O)N[C@@H](CC(C)C)C(=O)N[C@@H](CCCCN)C(=O)N[C@@H](CCCNC(=N)N)C(=O)N[C@@H](CCCCN)C(=O)N[C@@H](CC(C)C)C(=O)N[C@@H](CCCNC(=N)N)C(N)=O` [SR-3] (H-ELRFLHRLKRMRKRLKRKLR-NH2; N-terminus assumed): in data set [1], the “antibacterial activity against Staphylococcus aureus compared with AG30-5C” value is “higher antibacterial activity against Staphylococcus aureus than AG30-5C” and the “ATP (%) mean, Staphylococcus aureus” value was 3.5%. Further, in data set [2] (10 μg/mL, ATP assay), the “antibacterial activity against Pseudomonas aeruginosa compared with AG30-5C” value was “higher antibacterial activity against Pseudomonas aeruginosa than AG30-5C”. Further, the “ATP (%) mean, Pseudomonas aeruginosa” value in data set [2] is on record as 3.3%. Also, in the data set “in vitro”, the “decomposition in rat serum” value is recorded as 35-55% and the half-life was 67 min. In “in vitro” (rat, serum), this compound came in with an amount remaining at 10 min, 500 μg/mL of 53% and a fraction remaining at 1 h, 500 μg/mL of 44.4%. Moreover, the half-life in data set [3] came to 15 min. In addition, the “ability to form lumina” value in data set [4] (0.5, 2.5 and 10 μg/mL) is listed as “high ability to form lumina”. In addition, in data set [4] (polypeptide 0.5 μg/mL), the “The Area of Lumina (relative value, negative control as 100)” value came to 100.8 and the “The Length of Lumina (relative value, negative control as 100)” value was determined as 101.9. Besides, in data set [4] (polypeptide 10 μg/mL), the “The Area of Lumina (relative value, negative control as 100)” value is given as 118.0 and the “The Length of Lumina (relative value, negative control as 100)” value came to 122.6.

As to `CC[C@H](C)[C@H](NC(=O)[C@H](CC(C)C)NC(=O)[C@@H](N)CCCCN)C(=O)N[C@@H](Cc1ccccc1)C(=O)N[C@@H](CC(C)C)C(=O)N[C@@H](Cc1c[nH]cn1)C(=O)N[C@@H](CCCNC(=N)N)C(=O)N[C@@H](CC(C)C)C(=O)N[C@@H](CCCCN)C(=O)N[C@@H](CCCNC(=N)N)C(=O)N[C@@H](CCSC)C(=O)N[C@@H](CCCNC(=N)N)C(=O)N[C@@H](CCCCN)C(=O)N[C@@H](CCCNC(=N)N)C(=O)N[C@@H](CC(C)C)C(=O)N[C@@H](CCCCN)C(=O)N[C@@H](CCCNC(=N)N)C(=O)N[C@@H](CCCCN)C(=O)N[C@@H](CC(C)C)C(=O)N[C@@H](CCCNC(=N)N)C(N)=O` [SR-4] (H-KLIFLHRLKRMRKRLKRKLR-NH2; N-terminus assumed), in data set [1], the “antibacterial activity against Staphylococcus aureus compared with AG30-5C” value is reported as “higher antibacterial activity against Staphylococcus aureus than AG30-5C” and the “ATP (%) mean, Staphylococcus aureus” value is recorded as 1.0%. The “ATP (%) mean, Pseudomonas aeruginosa” value in data set [2] amounted to 9.8%. Moreover, in the data set “in vitro”, the “decomposition in rat serum” value is listed as 35-55% and the half-life worked out at 95 min. For the same compound, in “in vitro” (rat, serum), the amount remaining at 0.5 h, 500 μg/mL is 95% and the share remaining at 1 h, 500 μg/mL came to 64.5%. In data set [3], this compound returned a half-life of 16 min. Besides, in data set [4] (polypeptide 0.5 μg/mL), the “The Area of Lumina (relative value, negative control as 100)” value amounted to 90.5 and the “The Length of Lumina (relative value, negative control as 100)” value is recorded as 97.0. In data set [4] (polypeptide 10 μg/mL), the “The Area of Lumina (relative value, negative control as 100)” value is reported as 96.2 and the “The Length of Lumina (relative value, negative control as 100)” value is given as 96.4.

Regarding `CSCC[C@H](NC(=O)[C@H](CCCNC(=N)N)NC(=O)[C@@H](N)CCCCN)C(=O)N[C@@H](CCCNC(=N)N)C(=O)N[C@@H](CCCCN)C(=O)N[C@@H](CCCNC(=N)N)C(=O)N[C@@H](CC(C)C)C(=O)N[C@@H](CCCCN)C(=O)N[C@@H](CCCNC(=N)N)C(=O)N[C@@H](CCCCN)C(=O)N[C@@H](CC(C)C)C(=O)N[C@@H](CCCNC(=N)N)C(=O)N[C@@H](CC(C)C)C(=O)N[C@@H](Cc1c[nH]c2ccccc12)C(=O)N[C@@H](Cc1c[nH]cn1)C(=O)N[C@@H](CCCNC(=N)N)C(=O)N[C@@H](CCCCN)C(=O)N[C@@H](CCCNC(=N)N)C(=O)N[C@@H](Cc1ccc(O)cc1)C(=O)N[C@@H](CCCCN)C(=O)O` [SR-5] (H-KRMRKRLKRKLRLWHRKRYK-OH; N-terminus assumed), the “ATP (%) mean, Staphylococcus aureus” value in data set [1] is 24.2%. Moreover, in data set [2], the “ATP (%) mean, Pseudomonas aeruginosa” value is given as 16.4%. Besides, in “in vitro”, the “decomposition in rat serum” value is recorded as “completely decomposed” and the half-life was 4 min. In the data set “in vitro” (rat, serum), this compound displayed an amount remaining at 0.5 h, 500 μg/mL of 0% and an amount remaining at 1 h, 500 μg/mL of 0%. This compound also returned a half-life in data set [3] of 21 min. Further, in data set [4] (polypeptide 0.5 μg/mL), the “The Area of Lumina (relative value, negative control as 100)” value worked out at 103.4 and the “The Length of Lumina (relative value, negative control as 100)” value amounted to 106.2. In addition, in data set [4] (polypeptide 10 μg/mL), the “The Area of Lumina (relative value, negative control as 100)” value is 107.7 and the “The Length of Lumina (relative value, negative control as 100)” value was 106.8.

The record behind these values is patent publication US9376470B2, “Polypeptide having angiogenesis-inducing activity and antibacterial activity, and use thereof for medical purposes” (FunPep Inc., priority 2008, dated 2016).
